Assay: Absorption/emission spectra and photobleaching of chromophores and chromophore combinations
Type: physicochemical
Procedure: The photodynamic properties of (i) Fluorescein sodium salt at about 0.09 mg/mL, (ii) Eosin Y at about 0.305 mg/mL, and (iii) a mixture of Fluorescein sodium salt at about 0.09 mg/mL and Eosin Y at about 0.305 mg/mL, all in a gel (12% carbamide) were evaluated. A flexstation 384 II spectrophotometer was used to measure emitted fluorescence with the following parameters: mode fluorescence, excitation 460 nm, emission spectra 465-750 nm. The absorbance was read using a synergy HT microplate reader: mode absorbance; spectra between 300-650 nm. The absorption and emission spectra are shown in FIGS. 8A and 8B which indicate an energy transfer between the chromophores in the combination. It is to be reasonably inferred that this energy transfer can also occur in biophotonic compositions of the present disclosure. […]
The photodynamic properties of (i) Fluorescein sodium salt at 0.18 mg/mL final concentration, (ii) Eosin Y at about 0.305 mg/mL, and (iii) a mixture of Fluorescein sodium salt at about 0.18 mg/mL and Eosin Y at about 0.305 mg/mL in an aqueous solution were evaluated. A flexstation 384 II spectrophotometer was used to measure emitted fluorescence with the following parameters: mode fluorescence, excitation 460 nm, emission spectra 465-750 nm. The absorbance was read using a synergy HT microplate reader: mode absorbance; spectra between 300-650 nm. […]

Photobleaching during illumination (with Fluorescein in aqueous solution, Example 4): Photobleaching of Eosin Y was observed
Photobleaching during illumination (with Fluorescein in gel (12% carbamide), Example 3): Photobleaching of Eosin Y was observed
Compound: O=C([O-])c1ccccc1-c1c2cc(Br)c(=O)c(Br)c-2oc2c(Br)c([O-])c(Br)cc12.[Na+].[Na+] [Eosin Y]

From patent US20150360047A1, “Cosmetic Biophotonic Compositions” (KLOX TECHNOLOGIES INC., priority 2012, published 2015)
